Tests used:
[1] = test system: heteromeric ASIC2b+3 channels expressed with PAR2 in CHO cells; experiment: Whole-cell patch clamp, heteromeric ASIC2b+3 channels expressed with PAR2 in CHO cells; assay type: cell-based, Chinese hamster; settings: PAR2-AP 10^−5 M for 1 min; I pH 6.6; ASIC3:other subunit 1:3; n = 8
Protocol: ASIC3, ASIC1a, ASIC1b, ASIC2b, and PAR2 complementary DNAs (cDNAs) were used for heterologous expression in CHO cells as described previously (Wang et al., 2013). In brief, CHO cells were cultured at 37 °C in a humidified atmosphere of 5% CO2 and […] and passaged twice a week. Transient transfection of CHO cells was performed using HilyMax liposome transfection reagent (Dojindo Laboratories). CHO cells were maintained in F-12 Nutrient Mixture (added 1.176 g of NaHCO3/L medium) supplemented with 10% fetal bovine serum and 1% gluta-MAXTM-1 (100×; Invitrogen). When ASIC3 and PAR2 cDNAs were co-transfected, the ratio was kept at 1:1. All plasmids used contained, in addition to the desired ASIC3 cDNA, the coding sequence for enhanced green fluorescent protein to aid identification of transfected cells. Electrophysiological measurements were performed 24–48 h after transfection.
Whole-cell patch clamp and voltage clamp recordings were carried out at room temperature (22–25 °C) using a MultiClamp-700B amplifier and Digidata-1440A A/D converter (Axon Instruments, CA, USA). […]
(§1) Drugs purchased from Sigma and used in the experiments include hydrochloric acid, 2-furoyl-LIGRLO-NH2 (a PAR2-activating peptide (PAR2-AP)), trypsin, FSLLRY-NH2, APETx2, and capsazepine. […] The application pipette tips were positioned ∼30 μm away from the recorded neurons. […]

[2] = test system: ASIC3-like currents in rat DRG neurons; experiment: Voltage clamp of proton-evoked ASIC3-like currents in acutely isolated rat DRG neurons; assay type: cell-based; settings: 10^−5 M for 1 min; capsazepine 10 μM present; −60 mV; n = 9
Excerpt: The experimental protocol was approved by the animal research ethics committee of Hubei University of Science and Technology (No. 2016–67). All procedures conformed to international guidelines on the ethical use of animals, and every effort was made to minimize the number of animals used and their sufferings. Five- to 6-week-old Sprague–Dawley male rats were anesthetized with 7% chloral hydrate and then decapitated. The DRGs were taken out and transferred immediately into Dulbecco’s modified Eagle’s medium (DMEM, Sigma) at pH 7.4. After the removal of the surrounding connective tissues, the DRGs were minced with fine spring scissors and the ganglion fragments were placed in a flask containing 5 ml of DMEM in which trypsin (type II-S, Sigma) 0.5 mg/ml, collagenase (type I-A, Sigma) 1.0 mg/ml, and DNase (type IV, Sigma) 0.1 mg/ml had been dissolved and incubated at 35 °C in a shaking water bath for 25–30 min. Soybean trypsin inhibitor (type II-S, Sigma) 1.25 mg/ml was then added to stop trypsin digestion. The incubating solution was then replaced by external solution. Dissociated neurons were placed into a 35-mm Petri dish and kept for at least 1 h in normal external solution before the start of electrophysiological experiments. After plating of the DRG neurons, the neurons were used for experiments within 24 h. The neurons selected for electrophysiological experiment were 15–35 μm in diameter.
Whole-cell patch clamp and voltage clamp recordings were carried out at room temperature (22–25 °C) using a MultiClamp-700B amplifier and Digidata-1440A A/D converter (Axon Instruments, CA, USA). Recording pipettes were pulled using a Sutter P-97 puller (Sutter Instruments, CA, USA). The micropipettes were filled with internal solution containing (mM) KCl 140, MgCl2 2.5, HEPES 10, EGTA 11, and ATP 5; its pH was adjusted to 7.2 with KOH, and osmolarity was adjusted to 310 mOsm/L with sucrose. Cells were bathed in an external solution containing (mM) NaCl 150, KCl 5, CaCl2 2.5, MgCl2 2, HEPES 10, D-glucose 10; its osmolarity was adjusted to 330 mOsm/L with sucrose and its pH to 7.4. The resistance of the recording pipette was in the range of 3–6 MΩ. A small patch of membrane underneath the tip of the pipette was aspirated to form a giga seal, and then, a negative pressure was applied to rupture it, thus establishing a whole-cell configuration. The series resistance was compensated for by 70–80%. The adjustment of capacitance compensation was also done before recording the membrane currents. […]
as §1

With 2-furoyl-LIGRLO-NH2 [PAR2-AP] the “increase of peak current of heteromeric ASIC2b+3 channels” value [1] was 68.1 ± 7.3% and the “increase of peak amplitude of I pH 6.6 in DRG neurons after agonist pretreatment” value [2] was 57.1 ± 9.8%.
